Measured values taken from patent US8007737B2, “Use of antioxidants to prevent oxidation and reduce drug degradation in drug eluting medical devices” (Wyeth, priority 2004, dated 2011).
pIC50: −log10 of the molar value. Read-outs that look alike come from different tables or passages of the source. Values belong to the molecule of their own block, whether it stands above or below them.

Assays:
[1] = Drug content (% label claim) of sirolimus solutions with antioxidants, HPLC assay
Description: Screening experiments were performed to evaluate the solubility of various antioxidants in […] (THF) solutions containing sirolimus and the percentage of antioxidant required to prevent oxidation of sirolimus alone and in a basecoat polymeric matrix. THF is the solvent in which sirolimus may be dissolved. It is important to note that other solvents may be utilized. Two sets of controls were utilized. Control #1 comprises solutions of THF and sirolimus and/or polymers with no antioxidant, and Control #2 comprises solutions of THF and sirolimus and/or polymers, wherein the THF contains a label claim of 250 ppm of BHT as a stabilizer from the vendor of THF. In other words, the BHT is an added constituent of the THF solvent to prevent oxidation of the solvent. All percentages are given as weight/volume.
Table 11, shown below, identifies the samples for evaluation. All percentages are given as weight/volume. The samples in Table 11 contain no polymer. Table 12, also shown below, identifies the samples for evaluation with the solutions now comprising polymers, including PBMA and PEVA as described herein.
(60° C.). The samples were evaluated after five (5) days utilizing a drug testing assay for silolimus. In the exemplary embodiment, a HPLC assay was utilized.
Additional samples were tested under ambient conditions, rather than at 60° C., and using the same compositions; however, the test period was expanded to seven weeks.

[2] = Percent drug content change on coated cobalt-chromium 18 mm stent; type: physicochemical; conditions: 0.02 weight percent BHT per total basecoat solids; 8 weeks and 12 weeks, ambient conditions (25° C.)
Excerpt: Referring to FIG. 75, there is illustrated in graphical format, the results of the same drug screening as described above with the solution applied to a cobalt-chromium, 18 mm stent. In this test, two sets of solution samples were utilized, one with sirolimus and polymer solution containing the antioxidant and one with sirolimus and polymer solution containing no antioxidant. The antioxidant utilized was 0.02 weight percent BHT per total basecoat solids.
The test was utilized to determine the percent drug content change over a time period of 0 to 12 weeks under two conditions; namely, 40° C. with 75 percent relative humidity, and ambient conditions (25° C.).

[3] = Drug concentration in liquid formulations by liquid chromatography / HPLC; type: physicochemical
Excerpt: In accordance with exemplary embodiments of the present invention, a series of liquid formulations were developed for the local or regional delivery of water insoluble compounds such as sirolimus and its analogs, including CCI-779, ABT-578 and everolimus, through weeping balloons and catheter injection needles. […] These liquid formulations increase the apparent solubility of the pharmacologically active but water insoluble compounds by two to four orders of magnitude as compared to the solubility limits of the compounds in water. These liquid formulations rely on the use of a very small amount of organic solvents such as Ethanol (typically less than two percent) and a larger amount of safe amphiphilic (of or relating to a molecule having a polar, water soluble group attached to a non-polar, water insoluble […]) excipients such as polyethylene glycol (PEG 200, PEG 400) and vitamin E TPGS to enhance the solubility of the compounds. These liquid formulations of highly water insoluble compounds are stable and readily flowable at room temperature. Certain excipients, such as Vitamin E TPGS and BHT may be utilized to enhance the storage stability of sirolimus compounds through their anti-oxidation properties. […]

[4] = tested on: human smooth muscle cells; assay: Cladribine Example: PDGF-stimulated cell proliferation, cell count on day six; type: cell-based; conditions: from IC50 values
Description: To assess the ability of cladribine to prevent cell proliferation, human smooth muscle or endothelial cells (Clonetics, Walkersville, Md.) were seeded at a density of 2000 cells/cm^2 (approximately 3600 cells/well) into each well of 12-well plates and cultured with 1.5 ml of growth medium containing five percent fetal calf serum (FCS). After twenty-four hours, the growth medium was changed and fresh medium containing 10 ng/ml platelet-derived growth factor AB (PDGF AB; LIFE Technologies), as well as various concentrations of cladribine (0.001-10,000 nM) were added with triplicate wells. Medium was replaced with fresh cladribine-containing medium after three days. On day six, cells were detached by trypsinization to yield a cell suspension, lightly centrifuged to pellet and then counted manually using a Neubauer hemocytometer system. Cell viability was assessed by trypan blue exclusion.

[5] = tested on: human coronary artery smooth muscle cells; assay: Anti-proliferative activity in non-synchronized cultured cells stimulated with two percent fetal bovine serum; type: cell-based; conditions: for effect on the anti-proliferative activity of rapamycin: non-synchronized cells, mycophenolic acid zero to one thousand nanomolar, cladribine zero to nine hundred nanomolar
Excerpt: The multiple curves represent various concentrations of mycophenolic acid ranging from zero to one thousand nanomolar concentrations.
FIG. 58 illustrates, in graphical format, the anti-proliferative activity of cladribine in non-synchronized cultured human coronary artery smooth muscle cells stimulated with two percent fetal bovine serum.
The multiple curves represent various concentrations of cladribine ranging from zero to nine hundred nanomolar concentrations.

[6] = In vivo release kinetics from polymeric stent coatings, porcine pharmacokinetics studies
Excerpt: The topcoat is two hundred micro grams. […] Cladribine (2-chlorodeoxyadenosine or 2-CdA) is the 2-chloro-2′-deoxy derivative of the purine nucleoside, adenosine. Cladribine is resistant to degradation by adenosine deaminase, one of two intracellular adenine nucleotide regulatory enzymes, found in most cells. The other enzyme, 5′-nucleotidase, is present in variable amounts in different cell types (Carson et al., 1983). […] Thus, in cells such as leukocytes, which contain a high ratio (>0.04) of deoxycytidine kinase to 5′-nucleotidase, 2-CdA and its subsequent metabolites will tend to accumulate in pharmacological concentrations (Carson et al., 1983). Such high levels of a nucleoside triphosphate are known to inhibit the enzyme ribonucleotide reductase in rapidly dividing cells, thus preventing synthesis of deoxynucleotides required for DNA synthesis.
FIG. 61 is a graphical representation of the in vivo release kinetics of cladribine from a polymeric coating on Bx Velocity® stents, available from Cordis Corporation, implanted in a Yorkshire pig. […] The total weight of the topcoat is three hundred micrograms.
(§1) The basecoat is applied to Bx Velocity® stents and implanted into Yorkshire pigs.
as §1

[7] = tested on: human coronary artery smooth muscle cells; assay: Anti-proliferative activity in synchronized cultured cells stimulated with two percent fetal bovine serum; type: cell-based; conditions: for effect on the anti-proliferative activity of rapamycin: topotecan zero to three hundred nanomolar, etoposide zero to eight hundred nanomolar, Panzem zero to 100 micromolar
Excerpt: (§2) The multiple curves represent various concentrations of topotecan ranging from zero to three hundred nanomolar concentrations.
(§3) The multiple curves represent various concentrations of etoposide ranging from zero to eight hundred nanomolar concentrations.
The multiple curves represent various concentrations of Panzem® ranging from zero to 100 micromolar concentrations.

[8] = tested on: human coronary artery smooth muscle cell survival; conditions: concentrations up to 30,000.00 nanomolar
Excerpt: In vitro cytotoxicity tests or assays may be utilized to determine if drugs, agents and/or compounds are potentially toxic and the level of toxicity. Essentially, in vitro cytotoxicity assays determine acute necrotic effects by a drug causing direct cellular damage. The idea behind these assays is that toxic chemicals affect basic functions of cells which are common to all cells. […] There are a number of different assays that may be utilized. In the present invention, the cytotoxicity assay utilized is based upon the measurement of cellular metabolic activity. A reduction in metabolic activity is an indication of cellular damage. Tests that can measure metabolic function measure cellular ATP levels or mitochondrial activity via MTS metabolism. FIG. 69 is a graphical representation of the results of an MTS assay of Panzem®.

cell viability = assay: Cell viability assay; type: cell-based
Excerpt: as §2, §3

[9] = tested on: human coronary artery smooth muscle cell proliferation; assay: In vitro cell culture study of coronary artery smooth muscle cell proliferation; type: cell-based
Excerpt: FIG. 51 is a graph of the inhibition of coronary artery smooth muscle cells by trichostatin A in a cell culture study.

tumor cell lines = conditions: Woo et al. 2002; cited from earlier work

Molecule: Nc1nc(Cl)nc2c1ncn2[C@H]1C[C@H](O)[C@@H](CO)O1 [Cladribine, 2-chlorodeoxyadenosine]
potency on smooth muscle cells relative to endothelial cells [4]: approximately twice as potent | effect on the anti-proliferative activity of rapamycin [5]: increases the percent inhibition of rapamycin alone | inhibition of human coronary artery smooth muscle cell proliferation ([5]; non-synchronized, two percent fetal bovine serum): completely inhibits | in vivo elution from coating relative to rapamycin ([6]; EVA/BMA basecoat, BMA topcoat, Bx Velocity stents, Yorkshire pigs): elutes more rapidly than rapamycin | in vivo elution from coating ([6]; PVDF/HFP 85/15 basecoat and topcoat, Bx Velocity stents, Yorkshire pig, after the first day): levels off significantly

Molecule: COc1cc2c(cc1O)CC[C@@H]1[C@@H]2CC[C@]2(C)[C@@H](O)CC[C@@H]12 [Panzem®, 2-methoxyestradiol]
effect on the anti-proliferative activity of rapamycin [7]: increases the percent of inhibition of rapamycin alone | anti-proliferative activity ([7]; two percent fetal bovine serum): extremely effective inhibitor | cytotoxicity (MTS assay) [8]: do not reduce human coronary artery smooth muscle cell survival

Molecule: COc1cc([C@@H]2c3cc4c(cc3[C@@H](O[C@@H]3O[C@@H]5CO[C@@H](C)O[C@H]5[C@H](O)[C@H]3O)[C@H]3COC(=O)[C@H]23)OCO4)cc(OC)c1O [etoposide]
effect on the anti-proliferative activity of rapamycin [7]: increases the percent inhibition of rapamycin alone | cytotoxicity (cell viability; concentrations up to ten micromolar): non-cytotoxic

Molecule: COc1c(C)c2c(c(O)c1C/C=C(\C)CCC(=O)O)C(=O)OC2 [mycophenolic acid]
effect on the anti-proliferative activity of rapamycin [5]: potentiates the anti-proliferative activity of rapamycin

Molecule: CC[C@@]1(O)C(=O)OCc2c1cc1n(c2=O)Cc2cc3c(CN(C)C)c(O)ccc3nc2-1 [topotecan]
effect on the anti-proliferative activity of rapamycin [7]: increases the percent inhibition of rapamycin alone | cytotoxicity (cell viability; concentrations up to one micromolar): non-cytotoxic

Molecule: CC(/C=C/C(=O)NO)=C\[C@@H](C)C(=O)c1ccc(N(C)C)cc1 [trichostatin A]
inhibition of human coronary artery smooth muscle cell proliferation [9]: completely inhibit | pIC50 ([9]; human coronary artery smooth muscle cells, read-out: anti-proliferative IC50): ~8.22 | anti-proliferative IC50's (tumor cell lines): low nM range

More lines, main results first:

protection of sirolimus against degradation [1]: significant protection
Molecule: O=C1O[C@H]([C@@H](O)CO)C(O)=C1O [Ascorbic Acid]

protection of sirolimus against degradation [1]: significant protection | percent drug content change on stent [2]: lessens drug degradation
Molecule: Cc1cc(C(C)(C)C)c(O)c(C(C)(C)C)c1 [BHT, Butylated Hydroxytoluene]

concentration in the final solution (HPLC assay) ([3]; water and ethanol (less than two percent) as co-solvents, Vitamin E TPGS as excipient): 15000 µg/mL
Molecule: CO[C@H]1C[C@@H]2CC[C@@H](C)[C@@](O)(O2)C(=O)C(=O)N2CCCC[C@H]2C(=O)O[C@H]([C@H](C)C[C@@H]2CC[C@@H](OC(=O)C(C)(CO)CO)[C@H](OC)C2)CC(=O)[C@H](C)/C=C(\C)[C@@H](O)[C@@H](OC)C(=O)[C@H](C)C[C@H](C)/C=C/C=C/C=C/1C [CCI-779]

concentration relative to the solubility of sirolimus in water ([3]; 4 mg/ml formulation with PEG 200, ethanol and water): four hundred to about one thousand
Molecule: CO[C@H]1C[C@@H]2CC[C@@H](C)[C@@](O)(O2)C(=O)C(=O)N2CCCC[C@H]2C(=O)O[C@H]([C@H](C)C[C@@H]2CC[C@@H](O)[C@H](OC)C2)CC(=O)[C@H](C)/C=C(\C)[C@@H](O)[C@@H](OC)C(=O)[C@H](C)C[C@H](C)/C=C/C=C/C=C/1C [Rapamycin, rapamycin]
in vivo release rate from coating ([6]; pig, in vivo): slower release rate than that of mycophenolic acid

protection of sirolimus against degradation ([1]; five days at 60° C.): significant protection | protection of sirolimus against degradation ([1]; four weeks at 60° C., higher percent concentrations of antioxidant): significant protection
Molecule: Tocopherol
